Measured values: ChEMBL document CHEMBL1137758, “Biphenyl C-cyclopropylalkylamides: New scaffolds for targeting estrogen receptor beta” (Bioorg Med Chem Lett, 2009)

Experiments:
[1] = target: T1, Estrogen receptor (Homo sapiens) (UniProt P03372); assay: Displacement of fluorescein-labeled estradiol from human recombinant ERalpha at 0.2 uM by fluorescence polarization assay
T1 sequence (whole entry): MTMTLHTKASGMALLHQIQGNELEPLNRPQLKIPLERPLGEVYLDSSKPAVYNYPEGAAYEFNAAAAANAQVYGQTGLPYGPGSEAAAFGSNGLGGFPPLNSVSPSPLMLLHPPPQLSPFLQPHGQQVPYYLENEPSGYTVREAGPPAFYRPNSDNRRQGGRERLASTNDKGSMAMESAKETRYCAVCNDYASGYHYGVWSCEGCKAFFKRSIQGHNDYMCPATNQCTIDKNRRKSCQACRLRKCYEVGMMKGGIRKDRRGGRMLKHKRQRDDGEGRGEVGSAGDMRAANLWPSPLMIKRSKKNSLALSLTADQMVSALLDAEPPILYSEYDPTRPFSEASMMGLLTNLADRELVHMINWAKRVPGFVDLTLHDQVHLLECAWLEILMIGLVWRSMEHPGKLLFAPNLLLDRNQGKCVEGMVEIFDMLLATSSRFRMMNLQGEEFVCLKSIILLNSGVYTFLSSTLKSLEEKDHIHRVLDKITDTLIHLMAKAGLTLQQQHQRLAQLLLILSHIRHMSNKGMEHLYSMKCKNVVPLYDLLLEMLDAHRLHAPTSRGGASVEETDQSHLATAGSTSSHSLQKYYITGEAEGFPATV

[2] = target: T1, Estrogen receptor (Homo sapiens); assay: Displacement of fluorescein-labeled estradiol from human recombinant ERalpha at 1 uM by fluorescence polarization assay
[3] = target: T1, Estrogen receptor (Homo sapiens); assay: Displacement of fluorescein-labeled estradiol from human recombinant ERalpha at 5 uM by fluorescence polarization assay
Estrogen receptor beta [4] = target: T2, Estrogen receptor beta (Homo sapiens, UniProt Q92731); assay: Displacement of fluorescein-labeled estradiol from human recombinant ERbeta at 5 uM by fluorescence polarization assay
Estrogen receptor beta [5] = target: T2, Estrogen receptor beta; assay: Displacement of fluorescein-labeled estradiol from human recombinant ERbeta at 0.2 uM by fluorescence polarization assay
Estrogen receptor beta [6] = target: T2, Estrogen receptor beta; assay: Displacement of fluorescein-labeled estradiol from human recombinant ERbeta at 1 uM by fluorescence polarization assay

T2 sequence (Q92731 whole entry): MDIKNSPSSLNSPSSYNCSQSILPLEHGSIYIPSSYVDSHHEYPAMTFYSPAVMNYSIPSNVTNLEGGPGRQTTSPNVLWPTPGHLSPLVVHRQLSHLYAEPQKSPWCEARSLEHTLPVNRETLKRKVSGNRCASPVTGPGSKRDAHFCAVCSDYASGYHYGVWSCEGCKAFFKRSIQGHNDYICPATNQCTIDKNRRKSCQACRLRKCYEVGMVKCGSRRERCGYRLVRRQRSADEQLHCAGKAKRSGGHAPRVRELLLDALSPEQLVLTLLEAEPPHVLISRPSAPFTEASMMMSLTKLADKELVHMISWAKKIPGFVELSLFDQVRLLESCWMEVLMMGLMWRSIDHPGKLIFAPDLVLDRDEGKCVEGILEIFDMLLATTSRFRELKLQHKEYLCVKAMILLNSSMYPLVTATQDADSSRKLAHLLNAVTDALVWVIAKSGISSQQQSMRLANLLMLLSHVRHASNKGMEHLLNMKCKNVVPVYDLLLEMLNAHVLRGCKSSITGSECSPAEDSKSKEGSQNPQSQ

CCC/C=C(\CCC)[C@@H](NC(=O)c1ccco1)c1ccc(C(=O)OC)cc1
Activity [1]: 36% | Activity [2]: 58% | Activity [3]: 76% | Activity (Estrogen receptor beta [4]): 15% | Activity (Estrogen receptor beta [5]): -4% | Activity (Estrogen receptor beta [6]): -4%

CCC/C=C(\CCC)[C@@H](NS(=O)(=O)c1cccc2cccnc12)c1ccc(C(=O)OC)cc1
Activity [1]: 54% | Activity [2]: 111% | Activity [3]: 54% | Activity (Estrogen receptor beta [4]): 42% | Activity (Estrogen receptor beta [5]): 7% | Activity (Estrogen receptor beta [6]): 24%

CCCC[C@@H]1C[C@H]1[C@@H](NC(=O)C(C)(C)C)c1ccc(C(F)(F)F)cc1
Activity [1]: 40% | Activity [2]: 39% | Activity [3]: 56% | Activity (Estrogen receptor beta [4]): 7% | Activity (Estrogen receptor beta [5]): -2% | Activity (Estrogen receptor beta [6]): -4%

CCC/C=C(\CCC)[C@@H](NS(=O)(=O)c1cccc2cccnc12)c1ccc(-c2ccccc2)cc1
Activity [1]: 56% | Activity [2]: 28% | Activity [3]: 67% | Activity (Estrogen receptor beta [4]): 13% | Activity (Estrogen receptor beta [5]): 14% | Activity (Estrogen receptor beta [6]): 11%

CCCC[C@@H]1C[C@H]1[C@@H](NC(=O)c1ccc(C(F)(F)F)cc1)c1ccc(C(=O)OC)cc1
Activity [1]: 20% | Activity [2]: 45% | Activity [3]: 45% | Activity (Estrogen receptor beta [4]): 15% | Activity (Estrogen receptor beta [5]): -2% | Activity (Estrogen receptor beta [6]): 1%

CCCC[C@@H]1C[C@H]1[C@@H](NC(=O)c1ccccc1)c1ccc(C(=O)OC)cc1
Activity [1]: 54% | Activity [2]: 54% | Activity [3]: 75% | Activity (Estrogen receptor beta [4]): 6% | Activity (Estrogen receptor beta [5]): -3% | Activity (Estrogen receptor beta [6]): -2%

C=C(CCC)[C@@H](NC(=O)c1ccccc1Cl)c1ccccc1
Activity [1]: 68% | Activity [2]: 68% | Activity [3]: 73% | Activity (Estrogen receptor beta [4]): 7% | Activity (Estrogen receptor beta [5]): 11% | Activity (Estrogen receptor beta [6]): 7%

CCC/C=C(\CCC)[C@@H](NC(=O)C(C)(C)C)c1ccc(C(=O)OC)cc1
Activity [1]: 27% | Activity [2]: 42% | Activity [3]: 63% | Activity (Estrogen receptor beta [4]): 10% | Activity (Estrogen receptor beta [5]): 1% | Activity (Estrogen receptor beta [6]): -4%

CCC/C=C(\CCC)[C@@H](NS(=O)(=O)c1ccc(C(F)(F)F)cc1)c1ccc(-c2ccccc2)cc1
Activity [1]: 72% | Activity [2]: 14% | Activity [3]: 46% | Activity (Estrogen receptor beta [4]): 7% | Activity (Estrogen receptor beta [5]): 7% | Activity (Estrogen receptor beta [6]): 8%

CCC/C=C(\CCC)[C@@H](NC(=O)c1ccc(C(F)(F)F)cc1)c1ccccc1
Activity [1]: 47% | Activity [2]: 59% | Activity [3]: 68% | Activity (Estrogen receptor beta [4]): 16% | Activity (Estrogen receptor beta [5]): 10% | Activity (Estrogen receptor beta [6]): 11%

CCC[C@@H]1C[C@@]1(CCC)[C@@H](NS(=O)(=O)c1cccc2cccnc12)c1ccc(-c2ccccc2)cc1
Activity [1]: 58% | Activity [2]: 70% | Activity [3]: 88% | Activity (Estrogen receptor beta [4]): 29% | Activity (Estrogen receptor beta [5]): 15% | Activity (Estrogen receptor beta [6]): 17%

CCC/C=C(\CCC)[C@@H](NC(=O)c1cccs1)c1ccc(C(=O)OC)cc1
Activity [1]: 48% | Activity [2]: 73% | Activity [3]: 86% | Activity (Estrogen receptor beta [4]): 31% | Activity (Estrogen receptor beta [5]): 5% | Activity (Estrogen receptor beta [6]): 13%

CCC/C=C(\CCC)[C@@H](NC(=O)c1ccc(-c2ccccc2)cc1)c1ccc(C(=O)OC)cc1
Activity [1]: 27% | Activity [2]: 25% | Activity [3]: 27% | Activity (Estrogen receptor beta [4]): 4% | Activity (Estrogen receptor beta [5]): -1% | Activity (Estrogen receptor beta [6]): -3%

CCC/C=C(\CCC)[C@@H](NC(=O)c1ccc(C(F)(F)F)cc1)c1ccc(C(F)(F)F)cc1
Activity [1]: -7% | Activity [2]: 32% | Activity [3]: 61% | Activity (Estrogen receptor beta [4]): 5% | Activity (Estrogen receptor beta [5]): 10% | Activity (Estrogen receptor beta [6]): 5%

CCC/C=C(\CCC)[C@@H](NC(=O)Cc1ccccc1)c1ccc(C(=O)OC)cc1
Activity [1]: 3% | Activity [2]: 22% | Activity [3]: 48% | Activity (Estrogen receptor beta [4]): 13% | Activity (Estrogen receptor beta [5]): -11% | Activity (Estrogen receptor beta [6]): -2%

CCC/C=C(\CCC)[C@@H](NS(=O)(=O)c1cccs1)c1ccc(C(=O)OC)cc1
Activity [1]: 39% | Activity [2]: 33% | Activity [3]: 92% | Activity (Estrogen receptor beta [4]): 32% | Activity (Estrogen receptor beta [5]): 5% | Activity (Estrogen receptor beta [6]): 8%

C=C(CCCC)[C@@H](NC(=O)C(C)(C)C)c1ccccc1
Activity [1]: -67% | Activity [2]: 13% | Activity [3]: 13% | Activity (Estrogen receptor beta [4]): -4% | Activity (Estrogen receptor beta [5]): -10% | Activity (Estrogen receptor beta [6]): -12%

C=C(CCCC)[C@@H](NC(=O)c1ccco1)c1ccccc1
Activity [1]: -111% | Activity [2]: 29% | Activity [3]: 41% | Activity (Estrogen receptor beta [4]): 6% | Activity (Estrogen receptor beta [5]): -3% | Activity (Estrogen receptor beta [6]): -2%

CCC/C=C(\CCC)[C@@H](NS(=O)(=O)c1ccccc1)c1ccc(C(F)(F)F)cc1
Activity [1]: 70% | Activity [2]: 66% | Activity [3]: 102% | Activity (Estrogen receptor beta [4]): 30% | Activity (Estrogen receptor beta [5]): 13% | Activity (Estrogen receptor beta [6]): 10%

CCCCCC/C=C(\C)[C@@H](NC(=O)c1ccc(C(F)(F)F)cc1)c1ccc(-c2ccccc2)cc1
Activity [1]: 29% | Activity [2]: 20% | Activity [3]: 1% | Activity (Estrogen receptor beta [4]): -3% | Activity (Estrogen receptor beta [5]): -7% | Activity (Estrogen receptor beta [6]): -6%

CCCC[C@@H]1C[C@H]1[C@@H](NC(=O)c1cccs1)c1ccc(-c2ccccc2)cc1
Activity [1]: 58% | Activity [2]: 54% | Activity [3]: 37% | Activity (Estrogen receptor beta [4]): 5% | Activity (Estrogen receptor beta [5]): -1% | Activity (Estrogen receptor beta [6]): 8%

CCC/C=C(\CCC)[C@@H](NS(=O)(=O)c1ccc(C(F)(F)F)cc1)c1ccccc1
Activity [1]: 47% | Activity [2]: 74% | Activity [3]: 90% | Activity (Estrogen receptor beta [4]): 30% | Activity (Estrogen receptor beta [5]): -1% | Activity (Estrogen receptor beta [6]): 10%

CCCC[C@@H]1C[C@@]1(C)[C@@H](NS(=O)(=O)c1cccc2cccnc12)c1ccc(-c2ccccc2)cc1
Activity [1]: 52% | Activity [2]: 52% | Activity [3]: 41% | Activity (Estrogen receptor beta [4]): 2% | Activity (Estrogen receptor beta [5]): -5% | Activity (Estrogen receptor beta [6]): -4%

CCC/C=C(\CCC)[C@@H](NS(=O)(=O)c1ccccc1Cl)c1ccc(C(=O)OC)cc1
Activity [1]: 61% | Activity [2]: 92% | Activity [3]: 98% | Activity (Estrogen receptor beta [4]): 40% | Activity (Estrogen receptor beta [5]): 15% | Activity (Estrogen receptor beta [6]): 32%

CCC/C=C(\CCC)[C@@H](NC(=O)c1ccc(C(=O)OC)cc1)c1ccc(C(=O)OC)cc1
Activity [1]: -14% | Activity [2]: 24% | Activity [3]: 38% | Activity (Estrogen receptor beta [4]): 8% | Activity (Estrogen receptor beta [5]): -13% | Activity (Estrogen receptor beta [6]): -3%

CCC/C=C(\CCC)[C@@H](NC(=O)c1ccccc1)c1ccc(C(=O)OC)cc1
Activity [1]: 0% | Activity [2]: 52% | Activity [3]: 78% | Activity (Estrogen receptor beta [4]): 11% | Activity (Estrogen receptor beta [5]): 1% | Activity (Estrogen receptor beta [6]): 28%

CCC/C=C(\CCC)[C@@H](NP(=O)(c1ccccc1)c1ccccc1)c1ccc(C(F)(F)F)cc1
Activity [1]: 55% | Activity [2]: 65% | Activity [3]: 79% | Activity (Estrogen receptor beta [4]): 27% | Activity (Estrogen receptor beta [5]): 8% | Activity (Estrogen receptor beta [6]): 16%

CCC/C=C(\CCC)[C@@H](NS(=O)(=O)c1ccc(C(Cl)(Cl)Cl)cc1)c1ccccc1
Activity [1]: 42% | Activity [2]: 61% | Activity [3]: 95% | Activity (Estrogen receptor beta [4]): 42% | Activity (Estrogen receptor beta [5]): 6% | Activity (Estrogen receptor beta [6]): 13%

CCCC[C@@H]1C[C@H]1[C@@H](NC(=O)c1ccccc1)c1ccc(C(F)(F)F)cc1
Activity [1]: 32% | Activity [2]: 33% | Activity [3]: 48% | Activity (Estrogen receptor beta [4]): 13% | Activity (Estrogen receptor beta [5]): -9% | Activity (Estrogen receptor beta [6]): 1%

C=C(CCCC)[C@@H](NC(=O)c1ccc(-c2ccccc2)cc1)c1ccccc1
Activity [1]: -33% | Activity [2]: 35% | Activity [3]: 46% | Activity (Estrogen receptor beta [4]): 8% | Activity (Estrogen receptor beta [5]): 0% | Activity (Estrogen receptor beta [6]): 2%

CCC[C@@H]1C[C@@]1(CCC)[C@@H](NC(=O)Cc1ccccc1)c1ccc(-c2ccccc2)cc1
Activity [1]: 7% | Activity [2]: 17% | Activity [3]: -6% | Activity (Estrogen receptor beta [4]): -5% | Activity (Estrogen receptor beta [5]): -8% | Activity (Estrogen receptor beta [6]): -6%

CCC/C=C(\CCC)[C@@H](NS(=O)(=O)c1ccc(-c2ccccc2)cc1)c1ccc(C(=O)OC)cc1
Activity [1]: -69% | Activity [2]: 47% | Activity [3]: 54% | Activity (Estrogen receptor beta [4]): 16% | Activity (Estrogen receptor beta [5]): 6% | Activity (Estrogen receptor beta [6]): 12%

CCC[C@@H]1C[C@@]1(CCC)[C@@H](NC(=O)c1ccco1)c1ccc(C(Cl)(Cl)Cl)cc1
Activity [1]: 26% | Activity [2]: 39% | Activity [3]: 73% | Activity (Estrogen receptor beta [4]): 25% | Activity (Estrogen receptor beta [5]): -2% | Activity (Estrogen receptor beta [6]): 5%

CCCC[C@@H]1C[C@H]1[C@@H](NS(=O)(=O)c1cccc2cccnc12)c1ccc(-c2ccccc2)cc1
Activity [1]: 52% | Activity [2]: 74% | Activity [3]: 91% | Activity (Estrogen receptor beta [4]): 22% | Activity (Estrogen receptor beta [5]): 28% | Activity (Estrogen receptor beta [6]): 18%

CCC/C=C(\CCC)[C@@H](NP(=O)(c1ccccc1)c1ccccc1)c1ccc(-c2ccccc2)cc1
Activity [1]: 46% | Activity [2]: 11% | Activity [3]: -77% | Activity (Estrogen receptor beta [4]): -25% | Activity (Estrogen receptor beta [5]): 19% | Activity (Estrogen receptor beta [6]): -10%

CCCC[C@@H]1C[C@H]1[C@@H](NC(=O)c1ccccc1)c1ccc(-c2ccccc2)cc1
Activity [1]: 72% | Activity [2]: 77% | Activity (Estrogen receptor beta [4]): 46% | Activity (Estrogen receptor beta [5]): 26% | Activity (Estrogen receptor beta [6]): 31%
